Consider 28 compounds from patent US20260217677A1, “ORGANIC COMPOUNDS AS NLRP3 INHIBITORS” (KODIAK SCIENCES, INC., priority 2023, published 2026).

The subject of the first test is IL-1β release in U937 cells after NLRP3 activation. The test is described as follows: IL-1β release inhibition in U937 cells (MSD V-Plex). The conditions noted are these: Homo sapiens, U-937, read-out: IL-1β IC50, Table 3; PMA-differentiated U937 cells, 1 μg/mL LPS 3 h, compound 30 min, 10 mM nigericin 1 h.
The IC50 is the point on the concentration scale where inhibition reaches its midpoint. Consider `Oc1cc(C(F)(F)F)ccc1-c1nnc(N[C@@H]2CCCN(CCN3CC[C@H](O)C3)C2)c2c1COC2` [Example 35, (S)-1-(2-((R)-3-((4-(2-Hydroxy-4-(trifluoromethyl)phenyl)-5,7-dihydrofuro[3,4-d]pyridazin-1-yl)amino)piperidin-1-yl)ethyl)pyrrolidin-3-ol], for which the half-maximal inhibitory concentration (IC50) was in the range of 5 to 50 nM.

As for `Cc1c(N[C@@H]2CCCN(C(=O)C34CC(O)(C3)C4)C2)nnc(-c2ccc(C(F)(F)F)cc2O)c1C` [Example 67, (R)-(3-((6-(2-hydroxy-4-(trifluoromethyl)phenyl)-4,5-dimethylpyridazin-3-yl)amino)piperidin-1-yl) (3-hydroxybicyclo[1.1.1]pentan-1-yl)methanone], the IC50 fell in the range of 5 to 50 nM.

Regarding `Cc1cc(N[C@@H]2CCCN(CCN3CCC(O)CC3)C2)nnc1-c1ccc(C(F)(F)F)cc1O` [Compound 7, (R)-1-(2-(3-((6-(2-Hydroxy-4-(trifluoromethyl)phenyl)-5-methylpyridazin-3-yl)amino)piperidin-1-yl)ethyl)piperidin-4-ol], the IC50 was in the range of 5 to 50 nM.

`Cc1cc(N[C@@H]2CCCN(C3CCN(C4CCC(O)CC4)CC3)C2)nnc1-c1ccc(C(F)(F)F)cc1O` (single isomer, unassigned) [Example 39A]: the 50% inhibitory concentration (IC50) fell in the range of 5 to 50 nM.

Consider `O=C(CN1CCC[C@@H](Nc2nnc(-c3ccc(C(F)(F)F)cc3O)c3c2COC3)C1)N1CC(O)C1` [Compound 22, (R)-2-(3-((4-(2-Hydroxy-4-(trifluoromethyl)phenyl)-5,7-dihydrofuro[3,4-d]pyridazin-1-yl)amino)piperidin-1-yl)-1-(3-hydroxyazetidin-1-yl)ethan-1-one], for which the 50% inhibitory concentration (IC50) lay within 5 to 50 nM.

For the compound `Cc1cc(N[C@@H]2CCCN(CC(=O)N3CCC(O)CC3)C2)nnc1-c1ccc(C(F)(F)F)cc1O` [Compound 9, 2-[(3R)-3-({6-[2-Hydroxy-4-(trifluoromethyl)phenyl]-5-methylpyridazin-3-yl}amino)piperidin-1-yl]-1-(4-hydroxypiperidin-1-yl)ethanone], the IC50 fell in the range of 5 to 50 nM.

With `Cc1cc(N[C@@H]2CCCN(CCC3CC(O)C3)C2)nnc1-c1ccc(C(F)(F)F)cc1O` (stereo partly drawn) [Example 66, (R)-2-(6-((1-(2-(3-Hydroxycyclobutyl)ethyl)piperidin-3-yl)amino)-4-methylpyridazin-3-yl)-5-(trifluoromethyl)phenol], the IC50 is less than 5 nM.

`Cc1cc(N[C@@H]2CCCN(CC(C)(C)C(=O)N3CCC(O)CC3)C2)nnc1-c1ccc(C(F)(F)F)cc1O` [Example 47, 3-[(3R)-3-({6-[2-Hydroxy-4-(trifluoromethyl)phenyl]-5-methylpyridazin-3-yl}amino)piperidin-1-yl]-1-(4-hydroxypiperidin-1-yl)-2,2-dimethylpropan-1-one]: the IC50 is 50 to 500 nM.

In the case of `O=C(CN1CCC[C@@H](Nc2nnc(-c3ccc(F)cc3O)c3c2CCC3)C1)N1CCC(O)CC1` [Compound 20, 2-[(3R)-3-{[4-(4-Fluoro-2-hydroxyphenyl)-5H,6H,7H-cyclopenta[d]pyridazin-1-yl]amino}piperidin-1-yl]-1-(4-hydroxypiperidin-1-yl) ethenone], the IC50 fell in the range of 50 to 500 nM.

In the case of `O=C(CN1CCC[C@@H](Nc2nnc(-c3ccc(C(F)(F)F)cc3O)c3c2COC3)C1)N1C[C@H](O)[C@@H](F)C1` [Example 28, 1-((3S,4S)-3-Fluoro-4-hydroxypyrrolidin-1-yl)-2-((R)-3-((4-(2-hydroxy-4-(trifluoromethyl)phenyl)-5,7-dihydrofuro[3,4-d]pyridazin-1-yl)amino)piperidin-1-yl)ethan-1-one], the half-inhibitory concentration (IC50) was in the range of 5 to 50 nM.

Consider `Cc1cc(N[C@@H]2CCCN(CC(=O)N3CCC(C)(O)CC3)C2)nnc1-c1ccc(C(F)(F)F)cc1O` [Example 55, (R)-2-(3-((6-(2-Hydroxy-4-(trifluoromethyl)phenyl)-5-methylpyridazin-3-yl)amino)piperidin-1-yl)-1-(4-hydroxy-4-methylpiperidin-1-yl)ethan-1-one], for which the concentration for half-maximal inhibition (IC50) is less than 5 nM.

Take `Oc1cc(C(F)(F)F)ccc1-c1nnc(N[C@@H]2CCCN(C[C@H]3C[C@H](O)C3)C2)c2c1COC2` [Example 59, 2-(4-(((R)-1-(((1r,3R)-3-Hydroxycyclobutyl)methyl)piperidin-3-yl)amino)-5,7-dihydrofuro[3,4-d]pyridazin-1-yl)-5-(trifluoromethyl)phenol]: the IC50 was less than 5 nM.

Regarding `Cc1cc(-c2ccc(C(F)(F)F)cc2O)nnc1N[C@@H]1CCCN(CC(=O)N2CC[C@H](O)C2)C1` [Example 31, 2-((R)-3-((6-(2-Hydroxy-4-(trifluoromethyl)phenyl)-4-methylpyridazin-3-yl)amino)piperidin-1-yl)-1-((S)-3-hydroxypyrrolidin-1-yl)ethan-1-one], the 50% inhibitory concentration (IC50) fell in the range of 50 to 500 nM.

With `Cc1cc(N[C@@H]2CCCN(CC3CC4(CC(O)C4)C3)C2)nnc1-c1ccc(C(F)(F)F)cc1O` (stereo partly drawn) [Example 62, (R)-6-((3-((6-(2-Hydroxy-4-(trifluoromethyl)phenyl)-5-methylpyridazin-3-yl)amino)piperidin-1-yl)methyl)spiro[3.3]heptan-2-ol], the IC50 is less than 5 nM.

Staying with this test, now noted: Homo sapiens, U-937, read-out: IL-1β IC50, Table 4; PMA-differentiated U937 cells, 1 μg/mL LPS 3 h, compound 30 min, 10 mM nigericin 1 h.
Take `Cc1cc(N[C@@H]2CCCN(C3CC(N)C3)C2)nnc1-c1ccc(C(F)(F)F)cc1O` (stereo in doubt) [Example 91, 2-(6-(((R)-1-((1s*,3S*)-3-aminocyclobutyl)piperidin-3-yl)amino)-4-methylpyridazin-3-yl)-5-(trifluoromethyl)phenol]: the IC50 is 5 to 50 nM.

Take `Cc1cc(N[C@@H]2CCCN(CC(=O)N3CC(N)C3)C2)nnc1-c1ccc(C(F)(F)F)cc1O` [Example 77, (R)-1-(3-Aminoazetidin-1-yl)-2-(3-((6-(2-hydroxy-4-(trifluoromethyl)phenyl)-5-methylpyridazin-3-yl)amino)piperidin-1-yl)ethan-1-one]: the IC50 lay in the range of 5 to 50 nM.

As for `Cc1cc(N[C@@H]2CCCN(CC(=O)N3CCN[C@H](C)C3)C2)nnc1-c1ccc(C(F)(F)F)cc1O` [Example 110, 2-((R)-3-((6-(2-Hydroxy-4-(trifluoromethyl)phenyl)-5-methylpyridazin-3-yl)amino)piperidin-1-yl)-1-((R)-3-methylpiperazin-1-yl)ethan-1-one], the IC50 fell in the range of 5 to 50 nM.

Consider `Cc1cc(N[C@@H]2CCCN(CCNCC3COC3)C2)nnc1-c1ccc(C(F)(F)F)cc1O` [Example 108, (R)-2-(4-Methyl-6-((1-(2-((oxetan-3-ylmethyl)amino)ethyl)piperidin-3-yl)amino)pyridazin-3-yl)-5-(trifluoromethyl)phenol], for which the IC50 lay within 5 to 50 nM.

For `Cc1cc(N[C@@H]2CCCN(CC(=O)N3C[C@H]4CNC[C@H]4C3)C2)nnc1-c1ccc(C(F)(F)F)cc1O` [Example 112, 1-((3aR,6aS)-Hexahydropyrrolo[3,4-c]pyrrol-2 (1H)-yl)-2-((R)-3-((6-(2-hydroxy-4-(trifluoromethyl)phenyl)-5-methylpyridazin-3-yl)amino)piperidin-1-yl)ethan-1-one], the IC50 fell in the range of 5 to 50 nM.

With `Oc1cc(C(F)(F)F)ccc1-c1nnc(N[C@@H]2CCCN(C3CCNCC3)C2)c2c1COC2` [Example 100, (R)-2-(4-([1,4′-Bipiperidin]-3-ylamino)-5,7-dihydrofuro[3,4-d]pyridazin-1-yl)-5-(trifluoromethyl)phenol], the IC50 fell in the range of 5 to 50 nM.

Regarding `Cc1cc(N[C@@H]2CCCN(CCN3CCNCC3)C2)nnc1-c1ccc(C(F)(F)F)cc1O` [Example 104, (R)-2-(4-Methyl-6-((1-(2-(piperazin-1-yl)ethyl)piperidin-3-yl)amino)pyridazin-3-yl)-5-(trifluoromethyl)phenol], the IC50 lay in the range of 5 to 50 nM.

`Cc1cc(N[C@@H]2CCCN(CC(=O)N3CCC4(CCNCC4)CC3)C2)nnc1-c1ccc(C(F)(F)F)cc1O` [Example 93, (R)-2-(3-((6-(2-Hydroxy-4-(trifluoromethyl)phenyl)-5-methylpyridazin-3-yl)amino)piperidin-1-yl)-1-(3,9-diazaspiro[5.5]undecan-3-yl)ethan-1-one]: the IC50 was in the range of 50 to 500 nM.

As to `Oc1cc(F)ccc1-c1nnc(N[C@@H]2CCCN(C3CNC3)C2)c2c1CCC2` [Example 81, (R)-2-(4-((1-(Azetidin-3-yl)piperidin-3-yl)amino)-6,7-dihydro-5H-cyclopenta[d]pyridazin-1-yl)-5-fluorophenol], the IC50 is 50 to 500 nM.

With `Cc1cc(N[C@@H]2CCCN(CC(=O)N3CCN[C@@H](C)C3)C2)nnc1-c1ccc(C(F)(F)F)cc1O` [Example 111, 2-((R)-3-((6-(2-Hydroxy-4-(trifluoromethyl)phenyl)-5-methylpyridazin-3-yl)amino)piperidin-1-yl)-1-((S)-3-methylpiperazin-1-yl)ethan-1-one], the IC50 lay in the range of 5 to 50 nM.

Take `Oc1cc(C(F)(F)F)ccc1-c1nnc(N[C@@H]2CCCN(C3CNC3)C2)c2c1COC2` [Example 99, (R)-2-(4-((1-(Azetidin-3-yl)piperidin-3-yl)amino)-5,7-dihydrofuro[3,4-d]pyridazin-1-yl)-5-(trifluoromethyl)phenol]: the IC50 is less than 5 nM.

`Oc1cc(C(F)(F)F)ccc1-c1nnc(N[C@@H]2CCCN(C3CNC3)C2)c2c1CCC2` [Example 80, (R)-2-(4-((1-(Azetidin-3-yl)piperidin-3-yl)amino)-6,7-dihydro-5H-cyclopenta[d]pyridazin-1-yl)-5-(trifluoromethyl)phenol]: the IC50 lay in the range of 5 to 50 nM.

On to `Cc1cc(N[C@@H]2CCCN(CC(=O)N(C)CCN)C2)nnc1-c1ccc(C(F)(F)F)cc1O` [Example 79, (R)—N-(2-Aminoethyl)-2-(3-((6-(2-hydroxy-4-(trifluoromethyl)phenyl)-5-methylpyridazin-3-yl)amino)piperidin-1-yl)-N-methylacetamide], for which the 50% inhibitory concentration (IC50) lay in the range of 50 to 500 nM.

Staying with this test, now noted: read-out: IL-1β IC50; Table 3; PMA-differentiated U937 cells, 1 μg/mL LPS 3 h, compound 30 min, 10 mM nigericin 1 h.
Consider `Cc1cc(N[C@@H]2CCCN(C3CCN(C4CC(O)C4)CC3)C2)nnc1-c1ccc(C(F)(F)F)cc1O` (single isomer, unassigned) [Example 38B], for which the 50% inhibitory concentration (IC50) was 5 to 50 nM.
